# Test results from publication PMC3189488 (British journal of haematology, 2010).
# How the values were obtained:
# human HDAC8 = target: T1, human HDAC8 (Homo sapiens, UniProt Q9BY41); assay: HDAC enzyme assay in vitro, HDAC8; conditions: cell-free, purified enzyme
# T1 sequence (Q9BY41 1-377): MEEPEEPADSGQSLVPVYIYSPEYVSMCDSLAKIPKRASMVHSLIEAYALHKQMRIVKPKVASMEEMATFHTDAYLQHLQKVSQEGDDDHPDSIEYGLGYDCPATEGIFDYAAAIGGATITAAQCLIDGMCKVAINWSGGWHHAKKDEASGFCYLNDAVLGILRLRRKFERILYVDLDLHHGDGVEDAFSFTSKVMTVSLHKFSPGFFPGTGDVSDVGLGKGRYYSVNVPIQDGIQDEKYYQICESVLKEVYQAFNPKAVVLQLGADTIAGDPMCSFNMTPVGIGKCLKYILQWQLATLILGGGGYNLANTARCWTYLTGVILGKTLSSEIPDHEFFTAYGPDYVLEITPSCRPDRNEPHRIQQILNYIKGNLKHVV
# HDAC6 = conditions: ref Fournel et al, 2008; Gloghini et al, 2009; cited from earlier work
# human HDAC6 = target: T2, human HDAC6 (Homo sapiens, UniProt Q9UBN7); assay: HDAC enzyme assay in vitro, HDAC6; type: biochemical; conditions: cell-free, purified enzyme; Fig S1
# T2 sequence (Q9UBN7 1-1215): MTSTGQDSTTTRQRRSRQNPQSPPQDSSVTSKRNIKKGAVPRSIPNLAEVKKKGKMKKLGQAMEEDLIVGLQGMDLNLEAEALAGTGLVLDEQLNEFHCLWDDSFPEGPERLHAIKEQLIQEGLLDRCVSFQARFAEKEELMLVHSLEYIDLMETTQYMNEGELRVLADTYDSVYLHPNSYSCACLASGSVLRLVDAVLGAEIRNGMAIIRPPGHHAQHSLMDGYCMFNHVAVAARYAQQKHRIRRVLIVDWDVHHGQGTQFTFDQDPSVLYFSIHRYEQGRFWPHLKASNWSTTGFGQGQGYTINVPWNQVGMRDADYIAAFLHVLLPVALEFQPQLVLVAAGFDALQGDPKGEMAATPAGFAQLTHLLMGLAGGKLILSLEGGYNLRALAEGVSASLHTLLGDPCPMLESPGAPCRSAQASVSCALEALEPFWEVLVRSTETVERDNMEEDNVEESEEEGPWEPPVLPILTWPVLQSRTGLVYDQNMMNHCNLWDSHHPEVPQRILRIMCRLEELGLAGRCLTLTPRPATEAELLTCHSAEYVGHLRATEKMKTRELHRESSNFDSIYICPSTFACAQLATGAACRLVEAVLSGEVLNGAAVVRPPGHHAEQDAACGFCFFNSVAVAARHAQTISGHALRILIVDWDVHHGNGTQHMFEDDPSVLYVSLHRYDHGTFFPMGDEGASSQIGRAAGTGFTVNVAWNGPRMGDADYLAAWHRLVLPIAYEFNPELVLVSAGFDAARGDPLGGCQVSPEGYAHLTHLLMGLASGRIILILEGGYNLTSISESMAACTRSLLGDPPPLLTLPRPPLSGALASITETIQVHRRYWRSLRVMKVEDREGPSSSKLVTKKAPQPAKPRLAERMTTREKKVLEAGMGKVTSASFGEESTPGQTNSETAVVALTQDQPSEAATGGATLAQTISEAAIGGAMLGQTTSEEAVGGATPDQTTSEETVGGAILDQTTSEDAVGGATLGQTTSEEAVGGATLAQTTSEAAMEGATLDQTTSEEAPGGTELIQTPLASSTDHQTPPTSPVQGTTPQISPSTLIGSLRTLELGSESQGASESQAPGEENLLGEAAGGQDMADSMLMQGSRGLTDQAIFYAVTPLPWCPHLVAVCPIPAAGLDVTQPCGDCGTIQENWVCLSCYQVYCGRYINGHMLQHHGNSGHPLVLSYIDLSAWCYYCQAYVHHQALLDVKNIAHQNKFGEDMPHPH
# TNF-α = TNF-α secretion in HL cell supernatants by ELISA; type: cell-based, human; conditions: within 24 h of incubation
# KM-H2 cells = assay: Apoptosis by annexin-V/propidium iodide FACS, KM-H2; type: cell-based, human; conditions: 1 μmol/l, 48 h
# HD-LM2 cells = assay: Apoptosis by annexin-V/propidium iodide FACS, HD-LM2; type: cell-based, human; conditions: 1 μmol/l, 48 h
# L428 cells = assay: Apoptosis by annexin-V/propidium iodide FACS, L428; type: cell-based, human; conditions: 1 μmol/l, 48 h
# HL cell lines = assay: Combination of MGCD0103 with proteasome inhibitors in HL cell lines; type: cell-based, human; conditions: 48 h, combination index <1 indicates synergy
# NF-kB = assay: p65 NF-kB nuclear translocation by Western blot; type: cell-based, human; conditions: bortezomib 20 nmol/l with MGCD0103 1 μmol/l, 24 h
# [1] = target: human HDAC3 with human NcoR2 (Homo sapiens, UniProt O15379); assay: HDAC enzyme assay in vitro, HDAC3; conditions: cell-free, purified enzyme
# Sequence of human HDAC3 with human NcoR2 (O15379 whole entry, canonical isoform): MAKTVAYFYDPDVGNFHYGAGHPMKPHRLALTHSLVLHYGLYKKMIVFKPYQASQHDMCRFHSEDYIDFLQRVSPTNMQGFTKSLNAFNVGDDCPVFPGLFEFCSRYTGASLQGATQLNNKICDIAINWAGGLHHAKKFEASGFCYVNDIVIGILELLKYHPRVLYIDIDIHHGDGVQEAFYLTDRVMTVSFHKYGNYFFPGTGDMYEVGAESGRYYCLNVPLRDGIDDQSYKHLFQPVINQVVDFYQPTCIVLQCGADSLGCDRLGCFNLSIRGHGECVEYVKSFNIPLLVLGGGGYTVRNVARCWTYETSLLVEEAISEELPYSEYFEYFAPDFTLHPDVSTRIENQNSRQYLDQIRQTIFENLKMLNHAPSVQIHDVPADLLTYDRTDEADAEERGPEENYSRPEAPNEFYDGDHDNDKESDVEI
# Sequence of human HDAC3 with human NcoR2 (Q9Y618 395-489 partner limits assumed): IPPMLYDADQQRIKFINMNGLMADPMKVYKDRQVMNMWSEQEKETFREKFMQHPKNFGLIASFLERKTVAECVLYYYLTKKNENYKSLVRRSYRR
# HDACs 1-10 = assay: HDAC enzyme assay in vitro, purified HDAC 1-10 isoforms; conditions: positive control
Compound,inhibition of HDAC8 activity (human HDAC8),percentage of apoptotic cells (KM-H2 cells) [%],percentage of apoptotic cells (HD-LM2 cells) [%],percentage of apoptotic cells (L428 cells) [%],combination effect with MGCD0103 (HL cell lines),other results
Nc1ccccc1NC(=O)c1ccc(CNc2nccc(-c3cccnc3)n2)cc1 [MGCD0103],also inhibited the activity,69,59,72,,effect on HDAC6 (HDAC6): no effect; effect on HDAC6 activity (human HDAC6): no effect; TNF-α levels in supernatants (TNF-α): profoundly increased
C[C@@]12OC(=O)[C@]1([C@@H](O)[C@@H]1C=CCCC1)NC(=O)[C@@H]2CCCl [NPI0052],,,,,synergistic activity,
CC(C)C[C@H](NC(=O)[C@H](Cc1ccccc1)NC(=O)c1cnccn1)B(O)O [bortezomib],,,,,synergistic antiproliferative effect,effect on MGCD0103-induced NF-kB activation (NF-kB): inhibited MGCD0103-induced NF-kB activation
"O=C(CCCCCCC(=O)Nc1ccccc1)NO [vorinostat, suberoylanilide hydroxamic]",had activity,13.8,21,15,,inhibition of HDAC3 activity [1]: had activity
Trichostatin A [Trichostatin-A],,,,,,potency against HDACs 1-10 compared with MGCD0103 and vorinostat (HDACs 1-10): higher potency
